Measured values taken from the kinase profiling compilation of Christmann-Franck et al. (2016).

How the values were obtained:
Experiment in all cases: KINOMEscan competition binding
Conditions in all cases: compound 10.0 µM
CLK1 (human) = CLK1 (human) (UniProt P49759)
CAMK2B (human) = CAMK2B (human) (UniProt Q13554)
RPS6KA3 KD1 (human) = RPS6KA3 KD1 (human) (UniProt P51812)
HIPK1 (human) = HIPK1 (human) (UniProt Q86Z02)
PKN1 (human) = PKN1 (human) (UniProt Q16512)
STK36 (human) = STK36 (human) (UniProt Q9NRP7)
AAK1 (human) = AAK1 (human) (UniProt Q2M2I8)
PIK3CB (human) = PIK3CB (human) (UniProt P42338)
DAPK3 (human) = DAPK3 (human) (UniProt O43293)
TSSK1B (human) = TSSK1B (human) (UniProt Q9BXA7)
RPS6KA4 KD1 (human) = RPS6KA4 KD1 (human) (UniProt O75676)
RPS6KA1 KD1 (human) = RPS6KA1 KD1 (human) (UniProt Q15418)
MAP3K7 (human) = MAP3K7 (human) (UniProt O43318)
TAOK3 (human) = TAOK3 (human) (UniProt Q9H2K8)
SRC (human) = SRC (human) (UniProt P12931)
STK3 (human) = STK3 (human) (UniProt Q13188)
BMX (human) = BMX (human) (UniProt P51813)
SIK1 (human) = SIK1 (human) (UniProt P57059)
MERTK (human) = MERTK (human) (UniProt Q12866)
RIOK2 (human) = RIOK2 (human) (UniProt Q9BVS4)
ALK (human) = ALK (human) (UniProt Q9UM73)
CDC42BPB (human) = CDC42BPB (human) (UniProt Q9Y5S2)
MYO3B (human) = MYO3B (human) (UniProt Q8WXR4)
RAF1 (human) = RAF1 (human) (UniProt P04049)
MYLK4 (human) = MYLK4 (human) (UniProt Q86YV6)
MELK (human) = MELK (human) (UniProt Q14680)
CAMK2D (human) = CAMK2D (human) (UniProt Q13557)
ACVR2A (human) = ACVR2A (human) (UniProt P27037)
CDK17 (human) = CDK17 (human) (UniProt Q00537)
PRKX (human) = PRKX (human) (UniProt P51817)
STK35 (human) = STK35 (human) (UniProt Q8TDR2)
HCK (human) = HCK (human) (UniProt P08631)
MAP2K2 (human) = MAP2K2 (human) (UniProt P36507)
PHKG2 (human) = PHKG2 (human) (UniProt P15735)
BTK (human) = BTK (human) (UniProt Q06187)
[1] = system: KIT (human), P10721 [V559D/T670I]
MYLK (human) = MYLK (human) (UniProt Q15746)
MET (human) = MET (human) (UniProt P08581)
PKMYT1 (human) = PKMYT1 (human) (UniProt Q99640)
ZAP70 (human) = ZAP70 (human) (UniProt P43403)
FGFR4 (human) = FGFR4 (human) (UniProt P22455)
MAP3K9 (human) = MAP3K9 (human) (UniProt P80192)

Sequence of AAK1 (human) (Q2M2I8 whole entry, looked up): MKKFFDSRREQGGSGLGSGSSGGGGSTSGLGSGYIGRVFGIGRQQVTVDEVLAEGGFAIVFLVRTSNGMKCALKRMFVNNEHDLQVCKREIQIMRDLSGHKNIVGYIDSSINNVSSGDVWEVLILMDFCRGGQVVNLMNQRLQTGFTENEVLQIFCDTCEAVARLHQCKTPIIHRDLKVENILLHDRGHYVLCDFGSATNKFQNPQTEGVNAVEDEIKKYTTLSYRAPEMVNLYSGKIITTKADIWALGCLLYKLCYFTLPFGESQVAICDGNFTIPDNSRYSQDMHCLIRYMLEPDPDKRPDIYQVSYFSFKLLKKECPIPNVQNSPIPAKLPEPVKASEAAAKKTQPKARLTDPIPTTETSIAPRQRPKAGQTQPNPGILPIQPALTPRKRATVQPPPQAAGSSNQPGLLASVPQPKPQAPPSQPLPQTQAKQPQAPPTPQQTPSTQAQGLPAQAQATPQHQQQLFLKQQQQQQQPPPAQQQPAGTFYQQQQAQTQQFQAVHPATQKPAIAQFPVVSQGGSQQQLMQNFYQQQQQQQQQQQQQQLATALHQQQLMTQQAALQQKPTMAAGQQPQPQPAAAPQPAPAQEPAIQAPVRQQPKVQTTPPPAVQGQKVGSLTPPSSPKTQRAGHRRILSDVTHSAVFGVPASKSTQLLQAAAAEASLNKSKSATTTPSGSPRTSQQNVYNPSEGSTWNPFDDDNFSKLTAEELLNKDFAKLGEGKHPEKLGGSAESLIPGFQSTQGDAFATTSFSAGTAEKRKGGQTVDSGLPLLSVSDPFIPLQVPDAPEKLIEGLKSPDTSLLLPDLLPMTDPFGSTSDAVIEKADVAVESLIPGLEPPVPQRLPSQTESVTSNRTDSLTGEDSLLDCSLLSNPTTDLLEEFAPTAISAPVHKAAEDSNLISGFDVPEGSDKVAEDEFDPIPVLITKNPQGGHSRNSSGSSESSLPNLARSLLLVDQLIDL
Sequence of MYO3B (human) (Q8WXR4 whole entry, looked up): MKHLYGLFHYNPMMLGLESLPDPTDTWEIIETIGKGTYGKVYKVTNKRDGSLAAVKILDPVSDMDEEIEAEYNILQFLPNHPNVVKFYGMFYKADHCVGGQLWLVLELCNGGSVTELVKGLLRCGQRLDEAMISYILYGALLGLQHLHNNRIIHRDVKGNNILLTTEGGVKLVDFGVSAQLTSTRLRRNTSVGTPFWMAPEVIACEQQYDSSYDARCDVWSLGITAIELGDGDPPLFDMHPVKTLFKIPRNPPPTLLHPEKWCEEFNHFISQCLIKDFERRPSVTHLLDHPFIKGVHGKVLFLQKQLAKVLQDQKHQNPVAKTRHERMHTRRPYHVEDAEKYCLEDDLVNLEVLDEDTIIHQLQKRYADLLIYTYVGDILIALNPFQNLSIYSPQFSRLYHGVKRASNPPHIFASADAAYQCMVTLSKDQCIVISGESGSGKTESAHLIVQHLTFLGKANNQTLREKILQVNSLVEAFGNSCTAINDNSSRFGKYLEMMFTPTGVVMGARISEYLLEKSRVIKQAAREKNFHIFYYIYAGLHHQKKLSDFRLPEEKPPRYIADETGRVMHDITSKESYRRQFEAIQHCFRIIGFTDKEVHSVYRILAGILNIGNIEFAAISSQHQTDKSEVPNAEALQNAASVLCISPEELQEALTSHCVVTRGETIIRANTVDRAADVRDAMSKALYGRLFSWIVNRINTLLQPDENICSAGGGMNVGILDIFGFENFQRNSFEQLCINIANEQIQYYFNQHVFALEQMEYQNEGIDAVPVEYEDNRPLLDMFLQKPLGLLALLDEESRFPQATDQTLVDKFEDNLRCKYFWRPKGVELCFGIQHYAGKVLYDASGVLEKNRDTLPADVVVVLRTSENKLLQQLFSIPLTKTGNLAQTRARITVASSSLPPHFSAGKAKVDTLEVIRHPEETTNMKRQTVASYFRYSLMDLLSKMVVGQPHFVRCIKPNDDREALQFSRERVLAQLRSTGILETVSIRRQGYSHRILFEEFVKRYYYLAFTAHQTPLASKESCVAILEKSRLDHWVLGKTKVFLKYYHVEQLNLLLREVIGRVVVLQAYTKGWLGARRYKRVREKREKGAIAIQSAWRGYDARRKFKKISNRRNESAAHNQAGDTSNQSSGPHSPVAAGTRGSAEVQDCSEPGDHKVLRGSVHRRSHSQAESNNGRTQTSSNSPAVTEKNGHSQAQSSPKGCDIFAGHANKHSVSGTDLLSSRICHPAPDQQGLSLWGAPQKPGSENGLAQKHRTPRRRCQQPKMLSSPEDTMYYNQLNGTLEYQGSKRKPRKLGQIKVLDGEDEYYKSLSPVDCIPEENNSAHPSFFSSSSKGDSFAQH
Sequence of RIOK2 (human) (Q9BVS4 whole entry, looked up): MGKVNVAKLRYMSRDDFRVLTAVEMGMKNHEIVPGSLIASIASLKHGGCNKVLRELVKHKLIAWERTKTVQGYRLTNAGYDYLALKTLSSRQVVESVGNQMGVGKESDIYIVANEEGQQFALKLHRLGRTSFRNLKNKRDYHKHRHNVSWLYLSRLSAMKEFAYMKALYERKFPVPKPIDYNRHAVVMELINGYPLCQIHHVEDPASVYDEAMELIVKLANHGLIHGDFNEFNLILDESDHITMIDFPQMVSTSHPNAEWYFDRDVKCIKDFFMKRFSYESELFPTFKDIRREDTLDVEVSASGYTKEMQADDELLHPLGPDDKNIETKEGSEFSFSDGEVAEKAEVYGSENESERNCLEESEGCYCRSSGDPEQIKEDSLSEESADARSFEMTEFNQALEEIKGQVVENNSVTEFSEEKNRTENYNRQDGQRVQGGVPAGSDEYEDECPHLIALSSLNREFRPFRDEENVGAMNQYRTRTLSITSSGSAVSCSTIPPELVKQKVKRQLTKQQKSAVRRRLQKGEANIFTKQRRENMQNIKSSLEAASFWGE
Sequence of FGFR4 (human) (P22455 whole entry, looked up): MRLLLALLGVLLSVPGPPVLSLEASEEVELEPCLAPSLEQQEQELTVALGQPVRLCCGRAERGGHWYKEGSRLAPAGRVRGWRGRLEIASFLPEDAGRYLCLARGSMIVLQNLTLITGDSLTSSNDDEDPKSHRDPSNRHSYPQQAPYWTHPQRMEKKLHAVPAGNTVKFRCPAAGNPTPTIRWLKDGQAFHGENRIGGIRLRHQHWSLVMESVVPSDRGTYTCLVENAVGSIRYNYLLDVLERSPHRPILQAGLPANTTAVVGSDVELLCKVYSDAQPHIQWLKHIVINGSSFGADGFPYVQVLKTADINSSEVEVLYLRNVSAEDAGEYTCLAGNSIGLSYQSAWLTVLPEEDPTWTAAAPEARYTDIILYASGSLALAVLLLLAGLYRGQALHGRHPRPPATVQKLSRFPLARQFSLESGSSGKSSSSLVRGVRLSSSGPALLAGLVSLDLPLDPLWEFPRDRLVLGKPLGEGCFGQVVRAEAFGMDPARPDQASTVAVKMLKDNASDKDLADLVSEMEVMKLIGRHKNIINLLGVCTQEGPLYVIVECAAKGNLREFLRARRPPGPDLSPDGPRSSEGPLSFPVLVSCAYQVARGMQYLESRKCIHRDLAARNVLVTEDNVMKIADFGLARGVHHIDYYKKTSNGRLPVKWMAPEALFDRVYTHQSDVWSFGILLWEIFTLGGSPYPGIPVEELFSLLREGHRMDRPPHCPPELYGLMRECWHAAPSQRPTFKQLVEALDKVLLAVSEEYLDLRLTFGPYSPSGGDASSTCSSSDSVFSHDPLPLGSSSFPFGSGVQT
Sequence of MAP3K7 (human) (O43318 whole entry, looked up): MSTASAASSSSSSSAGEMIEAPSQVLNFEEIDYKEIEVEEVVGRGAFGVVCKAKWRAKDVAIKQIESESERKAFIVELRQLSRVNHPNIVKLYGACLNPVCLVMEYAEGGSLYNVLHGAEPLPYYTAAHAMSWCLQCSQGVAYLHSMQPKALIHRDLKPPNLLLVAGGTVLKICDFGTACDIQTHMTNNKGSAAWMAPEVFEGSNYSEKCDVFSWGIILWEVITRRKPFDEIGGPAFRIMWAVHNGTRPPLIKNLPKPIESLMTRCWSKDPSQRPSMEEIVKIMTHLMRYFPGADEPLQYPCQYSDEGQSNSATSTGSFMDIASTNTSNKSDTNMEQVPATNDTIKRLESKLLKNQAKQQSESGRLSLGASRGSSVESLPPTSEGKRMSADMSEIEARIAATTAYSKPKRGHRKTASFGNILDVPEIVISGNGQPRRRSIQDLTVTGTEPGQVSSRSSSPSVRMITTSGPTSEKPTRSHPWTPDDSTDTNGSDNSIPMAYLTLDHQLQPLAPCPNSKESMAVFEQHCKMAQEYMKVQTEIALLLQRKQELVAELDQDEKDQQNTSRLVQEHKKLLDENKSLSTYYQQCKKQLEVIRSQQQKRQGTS
Sequence of RPS6KA1 KD1 (human) (Q15418 whole entry, looked up): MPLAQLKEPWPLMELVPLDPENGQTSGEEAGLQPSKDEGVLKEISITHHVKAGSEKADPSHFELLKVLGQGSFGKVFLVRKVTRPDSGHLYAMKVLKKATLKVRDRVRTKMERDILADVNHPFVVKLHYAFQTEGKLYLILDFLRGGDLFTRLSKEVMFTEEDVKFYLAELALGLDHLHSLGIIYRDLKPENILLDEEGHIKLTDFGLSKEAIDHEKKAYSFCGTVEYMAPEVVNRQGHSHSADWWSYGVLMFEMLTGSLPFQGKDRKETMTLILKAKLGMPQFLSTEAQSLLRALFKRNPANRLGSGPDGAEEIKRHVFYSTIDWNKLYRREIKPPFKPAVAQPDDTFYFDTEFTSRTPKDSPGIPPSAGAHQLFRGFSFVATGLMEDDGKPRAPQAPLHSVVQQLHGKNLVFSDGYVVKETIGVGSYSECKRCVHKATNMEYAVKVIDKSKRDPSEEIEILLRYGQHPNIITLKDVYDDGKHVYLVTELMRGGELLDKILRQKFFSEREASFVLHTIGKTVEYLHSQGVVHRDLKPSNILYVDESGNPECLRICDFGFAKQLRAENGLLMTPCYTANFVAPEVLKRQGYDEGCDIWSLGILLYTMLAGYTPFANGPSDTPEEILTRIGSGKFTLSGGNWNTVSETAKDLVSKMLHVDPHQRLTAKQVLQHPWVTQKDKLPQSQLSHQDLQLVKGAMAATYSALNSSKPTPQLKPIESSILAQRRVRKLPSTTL

CCOc1cc(N2CCC(N3CCCCC3)CC2)ccc1Nc1nc(Nc2ccccc2S(=O)(=O)C(C)C)c2cn[nH]c2n1
kinase still bound, per cent of control (CLK1 (human)): 0.4%
kinase still bound, per cent of control (CAMK2B (human)): 65%
kinase still bound, per cent of control (RPS6KA3 KD1 (human)): 2%
kinase still bound, per cent of control (HIPK1 (human)): 82%
kinase still bound, per cent of control (PKN1 (human)): 100%
kinase still bound, per cent of control (STK36 (human)): 100%
kinase still bound, per cent of control (AAK1 (human)): 69%
kinase still bound, per cent of control (PIK3CB (human)): 17%
kinase still bound, per cent of control (DAPK3 (human)): 83%
kinase still bound, per cent of control (TSSK1B (human)): 92%
kinase still bound, per cent of control (RPS6KA4 KD1 (human)): 100%
kinase still bound, per cent of control (RPS6KA1 KD1 (human)): 1.8%
kinase still bound, per cent of control (MAP3K7 (human)): 59%
kinase still bound, per cent of control (TAOK3 (human)): 36%
kinase still bound, per cent of control (SRC (human)): 69%
kinase still bound, per cent of control (STK3 (human)): 100%
kinase still bound, per cent of control (BMX (human)): 100%
kinase still bound, per cent of control (SIK1 (human)): 100%
kinase still bound, per cent of control (MERTK (human)): 100%
kinase still bound, per cent of control (RIOK2 (human)): 76%
kinase still bound, per cent of control (ALK (human)): 34%
kinase still bound, per cent of control (CDC42BPB (human)): 100%
kinase still bound, per cent of control (MYO3B (human)): 18%
kinase still bound, per cent of control (RAF1 (human)): 100%
kinase still bound, per cent of control (MYLK4 (human)): 100%
kinase still bound, per cent of control (MELK (human)): 92%
kinase still bound, per cent of control (CAMK2D (human)): 34%
kinase still bound, per cent of control (ACVR2A (human)): 100%
kinase still bound, per cent of control (CDK17 (human)): 100%
kinase still bound, per cent of control (PRKX (human)): 100%
kinase still bound, per cent of control (STK35 (human)): 100%
kinase still bound, per cent of control (HCK (human)): 100%
kinase still bound, per cent of control (MAP2K2 (human)): 94%
kinase still bound, per cent of control (PHKG2 (human)): 21%
kinase still bound, per cent of control (BTK (human)): 32%
kinase still bound, per cent of control [1]: 100%
kinase still bound, per cent of control (MYLK (human)): 0.9%
kinase still bound, per cent of control (MET (human)): 100%
kinase still bound, per cent of control (PKMYT1 (human)): 69%
kinase still bound, per cent of control (ZAP70 (human)): 32%
kinase still bound, per cent of control (FGFR4 (human)): 100%
kinase still bound, per cent of control (MAP3K9 (human)): 94%
